Seven compounds from patent US10206394B2, “Herbicidal compounds” (Syngenta Participations AG, priority 2014, dated 2019) can be followed below.

Assay in all cases: Glasshouse assay for herbicidal activity (pre- and post-emergence), percentage phytotoxicity
What all share (format): in vivo

The test system of one assay is Lolium perenne (LOLPE). The conditions noted are these: Lolium perenne. The method in brief:
(§1)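 Herbicide was applied to potted plants sown in standard soil, one day after sowing for PRE and after about 12 days for POST. Visual percentage damage ratings followed at 15 DAA (POST) and 20 DAA (PRE).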

The subject of assay [1] is Echinochloa crus-galli (ECHCG). The conditions noted are these: Echinochloa crus-galli. In short, it runs like this:
as §1

Assay [2] deals with Alopecurus myosuroides (ALOMY). The conditions noted are these: Alopecurus myosuroides. The method in brief:
as §1

The test system of a further assay is Avena fatua (AVEFA). The conditions noted are these: Avena fatua. The method in brief: as §1
Setting [3] is: post-emergence, 360 h, POST-emergence, rate 250 g/ha, visual score 15 DAA (100%=total damage, 0%=no damage), read-out: Post-emergence herbicidal activity (percentage phytotoxicity) LOLPE POST.
The mark [4] stands for this setting: pre-emergence, 480 h, PRE-emergence, rate 250 g/ha, visual score 20 DAA (100%=total damage, 0%=no damage), read-out: Pre-emergence herbicidal activity (percentage phytotoxicity) LOLPE PRE.
The mark [5] stands for this setting: post-emergence, 360 h, POST-emergence, rate 250 g/ha, visual score 15 DAA (100%=total damage, 0%=no damage), read-out: Post-emergence herbicidal activity (percentage phytotoxicity) ECHCG POST.
The mark [6] stands for this setting: pre-emergence, 480 h, PRE-emergence, rate 250 g/ha, visual score 20 DAA (100%=total damage, 0%=no damage), read-out: Pre-emergence herbicidal activity (percentage phytotoxicity) ECHCG PRE.
Where [7] appears, read: post-emergence, 360 h, POST-emergence, rate 250 g/ha, visual score 15 DAA (100%=total damage, 0%=no damage), read-out: Post-emergence herbicidal activity (percentage phytotoxicity) ALOMY POST.
The mark [8] stands for this setting: pre-emergence, 480 h, PRE-emergence, rate 250 g/ha, visual score 20 DAA (100%=total damage, 0%=no damage), read-out: Pre-emergence herbicidal activity (percentage phytotoxicity) ALOMY PRE.
[9] abbreviates: post-emergence, 360 h, POST-emergence, rate 250 g/ha, visual score 15 DAA (100%=total damage, 0%=no damage), read-out: Post-emergence herbicidal activity (percentage phytotoxicity) AVEFA POST.
[10] abbreviates: pre-emergence, 480 h, PRE-emergence, rate 250 g/ha, visual score 20 DAA (100%=total damage, 0%=no damage), read-out: Pre-emergence herbicidal activity (percentage phytotoxicity) AVEFA PRE.
The mark [11] stands for this setting: post-emergence, 360 h, 250 g/ha, post-emergence, 15 DAA, visual assessment (100%=total damage, 0%=no damage), read-out: Post-emergence herbicidal activity (percentage phytotoxicity) LOLPE POST.
[12] abbreviates: pre-emergence, 480 h, 250 g/ha, pre-emergence, 20 DAA, visual assessment (100%=total damage, 0%=no damage), read-out: Pre-emergence herbicidal activity (percentage phytotoxicity) LOLPE PRE.
Where [13] appears, read: post-emergence, 360 h, 250 g/ha, post-emergence, 15 DAA, visual assessment (100%=total damage, 0%=no damage), read-out: Post-emergence herbicidal activity (percentage phytotoxicity) ECHCG POST.
Where [14] appears, read: pre-emergence, 480 h, 250 g/ha, pre-emergence, 20 DAA, visual assessment (100%=total damage, 0%=no damage), read-out: Pre-emergence herbicidal activity (percentage phytotoxicity) ECHCG PRE.
Where [15] appears, read: post-emergence, 360 h, 250 g/ha, post-emergence, 15 DAA, visual assessment (100%=total damage, 0%=no damage), read-out: Post-emergence herbicidal activity (percentage phytotoxicity) ALOMY POST.
The mark [16] stands for this setting: pre-emergence, 480 h, 250 g/ha, pre-emergence, 20 DAA, visual assessment (100%=total damage, 0%=no damage), read-out: Pre-emergence herbicidal activity (percentage phytotoxicity) ALOMY PRE.
The mark [17] stands for this setting: post-emergence, 360 h, 250 g/ha, post-emergence, 15 DAA, visual assessment (100%=total damage, 0%=no damage), read-out: Post-emergence herbicidal activity (percentage phytotoxicity) AVEFA POST.
Where [18] appears, read: pre-emergence, 480 h, 250 g/ha, pre-emergence, 20 DAA, visual assessment (100%=total damage, 0%=no damage), read-out: Pre-emergence herbicidal activity (percentage phytotoxicity) AVEFA PRE.

Where two headings read alike, the source gives them in different places.

For the compound `C#CCN(C)C(=O)CC1CC(=O)C(c2c(C)cc(/C=C/C)cc2CC)C1=O` (centres unmarked) [Compound B195], the pest or weed control at 250 g/ha with Lolium perenne (LOLPE) (setting [3]) was found to be 100%; in the assay on Lolium perenne (LOLPE) (setting [4]), 100%; in assay [1] (setting [5]), 100%; in assay [1] (setting [6]), 100%; in assay [2] (setting [7]), 100%; in assay [2] (setting [8]) it was 90%. For the same compound, the figures for the pest or weed control at 250 g/ha in the assay with Avena fatua (AVEFA) (setting [9]) and with Avena fatua (AVEFA) (setting [10]) were 100% and 80%, respectively.
Regarding `COc1ccc(CNC(=O)CC2CC(=O)C(c3c(C)cc(-c4ncc(Cl)cn4)cc3C)C2=O)cc1` (centres unmarked) [Compound B356], the pest or weed control at 250 g/ha with Lolium perenne (LOLPE) (post-emergence, 360 h, Rate 250 g/ha, post-emergence, visual assessment 15 DAA, 100%=total damage, 0%=no damage, read-out: Post-emergence herbicidal activity (percentage phytotoxicity) LOLPE POST) worked out at 100%; in the assay with Lolium perenne (LOLPE) (pre-emergence, 480 h, Rate 250 g/ha, pre-emergence, visual assessment 20 DAA, 100%=total damage, 0%=no damage, read-out: Pre-emergence herbicidal activity (percentage phytotoxicity) LOLPE PRE), 80%; in assay [1] (post-emergence, 360 h, Rate 250 g/ha, post-emergence, visual assessment 15 DAA, 100%=total damage, 0%=no damage, read-out: Post-emergence herbicidal activity (percentage phytotoxicity) ECHCG POST), 100%; in assay [1] (pre-emergence, 480 h, Rate 250 g/ha, pre-emergence, visual assessment 20 DAA, 100%=total damage, 0%=no damage, read-out: Pre-emergence herbicidal activity (percentage phytotoxicity) ECHCG PRE), 100%; in assay [2] (post-emergence, 360 h, Rate 250 g/ha, post-emergence, visual assessment 15 DAA, 100%=total damage, 0%=no damage, read-out: Post-emergence herbicidal activity (percentage phytotoxicity) ALOMY POST), 90%; in assay [2] (pre-emergence, 480 h, Rate 250 g/ha, pre-emergence, visual assessment 20 DAA, 100%=total damage, 0%=no damage, read-out: Pre-emergence herbicidal activity (percentage phytotoxicity) ALOMY PRE), 60%. In addition, the pest or weed control at 250 g/ha in the assay on Avena fatua (AVEFA) (post-emergence, 360 h, Rate 250 g/ha, post-emergence, visual assessment 15 DAA, 100%=total damage, 0%=no damage, read-out: Post-emergence herbicidal activity (percentage phytotoxicity) AVEFA POST) was determined as 100%; in the assay on Avena fatua (AVEFA) (pre-emergence, 480 h, Rate 250 g/ha, pre-emergence, visual assessment 20 DAA, 100%=total damage, 0%=no damage, read-out: Pre-emergence herbicidal activity (percentage phytotoxicity) AVEFA PRE), 60%.
For `C#CCCNC(=O)CC1CC(=O)C(c2c(C)cc(C)cc2C)C1=O` (centres unmarked) [Compound B37], the pest or weed control at 250 g/ha amounted to 80% in the assay with Lolium perenne (LOLPE) (setting [11]); 100% with Lolium perenne (LOLPE) (setting [12]); 90% in assay [1] (setting [13]); 90% in assay [1] (setting [14]); 70% in assay [2] (setting [15]); 70% in assay [2] (setting [16]). Moreover, the pest or weed control at 250 g/ha with Avena fatua (AVEFA) (setting [17]) turned out to be 100%; in the assay on Avena fatua (AVEFA) (setting [18]), 90%.
In the case of `Cc1cc(-c2ccc(Br)cn2)cc(C)c1C1C(=O)CC(CC(=O)NC(C)C)C1=O` (centres unmarked) [Compound B296], the pest or weed control at 250 g/ha was 100% in the assay on Lolium perenne (LOLPE) (setting [3]); 90% in the assay with Lolium perenne (LOLPE) (setting [4]); 100% in assay [1] (setting [5]); 100% in assay [1] (setting [6]); 100% in assay [2] (setting [7]); 90% in assay [2] (setting [8]). Besides, the pest or weed control at 250 g/ha with Avena fatua (AVEFA) (setting [9]) was determined as 100%; in the assay with Avena fatua (AVEFA) (setting [10]) it was 90%.
With `COCCCNC(=O)CC1CC(=O)C(c2c(C)cc(-c3ncc(F)cn3)cc2C)C1=O` (centres unmarked) [Compound B106], the pest or weed control at 250 g/ha in the assay with Lolium perenne (LOLPE) (setting [11]) stood at 100%; in the assay with Lolium perenne (LOLPE) (setting [12]), 90%; in assay [1] (setting [13]) it was 100%; in assay [1] (setting [14]), 100%; in assay [2] (setting [15]), 100%; in assay [2] (setting [16]), 80%. In addition, the results for the pest or weed control at 250 g/ha in the assay with Avena fatua (AVEFA) (setting [17]) and in the assay with Avena fatua (AVEFA) (setting [18]) were 100% and 70%, respectively.
Take `Cc1cc(-n2cc(Cl)cn2)cc(C)c1C1C(=O)CC(CC(=O)NCC(=O)c2ccccc2)C1=O` (centres unmarked) [Compound A137]: the pest or weed control at 250 g/ha in the assay on Lolium perenne (LOLPE) (post-emergence, 360 h, Rate 250 g/ha, post-emergence, assessed visually 15 DAA, 100%=total damage, 0%=no damage, read-out: Post-emergence herbicidal activity (percentage phytotoxicity) LOLPE POST) turned out to be 60%; in the assay on Lolium perenne (LOLPE) (pre-emergence, 480 h, Rate 250 g/ha, pre-emergence, assessed visually 20 DAA, 100%=total damage, 0%=no damage, read-out: Pre-emergence herbicidal activity (percentage phytotoxicity) LOLPE PRE) it was 70%; in assay [1] (post-emergence, 360 h, Rate 250 g/ha, post-emergence, assessed visually 15 DAA, 100%=total damage, 0%=no damage, read-out: Post-emergence herbicidal activity (percentage phytotoxicity) ECHCG POST), 90%; in assay [1] (pre-emergence, 480 h, Rate 250 g/ha, pre-emergence, assessed visually 20 DAA, 100%=total damage, 0%=no damage, read-out: Pre-emergence herbicidal activity (percentage phytotoxicity) ECHCG PRE), 70%; in assay [2] (post-emergence, 360 h, Rate 250 g/ha, post-emergence, assessed visually 15 DAA, 100%=total damage, 0%=no damage, read-out: Post-emergence herbicidal activity (percentage phytotoxicity) ALOMY POST), 40%; in assay [2] (pre-emergence, 480 h, Rate 250 g/ha, pre-emergence, assessed visually 20 DAA, 100%=total damage, 0%=no damage, read-out: Pre-emergence herbicidal activity (percentage phytotoxicity) ALOMY PRE) it was 60%. In addition, the pest or weed control at 250 g/ha in the assay on Avena fatua (AVEFA) (post-emergence, 360 h, Rate 250 g/ha, post-emergence, assessed visually 15 DAA, 100%=total damage, 0%=no damage, read-out: Post-emergence herbicidal activity (percentage phytotoxicity) AVEFA POST) worked out at 70%; in the assay with Avena fatua (AVEFA) (pre-emergence, 480 h, Rate 250 g/ha, pre-emergence, assessed visually 20 DAA, 100%=total damage, 0%=no damage, read-out: Pre-emergence herbicidal activity (percentage phytotoxicity) AVEFA PRE), 60%.
For `Cc1cc(C)c(C2C(=O)CC(CC(=O)NCc3ccc(C(F)(F)F)cc3)C2=O)c(C)c1` (centres unmarked) [Compound B15], the pest or weed control at 250 g/ha with Lolium perenne (LOLPE) (setting [11]) turned out to be 90%; in the assay with Lolium perenne (LOLPE) (setting [12]), 100%; in assay [1] (setting [13]) it was 90%; in assay [1] (setting [14]), 90%; in assay [2] (setting [15]), 70%; in assay [2] (setting [16]), 80%. Moreover, the pest or weed control at 250 g/ha with Avena fatua (AVEFA) (setting [17]) is 90%; with Avena fatua (AVEFA) (setting [18]), 80%.
